Assay results as given in patent publication US11155525B2 (Sanford Burnham Prebys Medical Discovery Institute, priority 2015, dated 2021).

What follows are compounds tested against T1, human apelin receptor (Homo sapiens, UniProt P35414) (assay: Measurement of apelin receptor agonist activity (cell-based assay determining the amount of intracellular cAMP)). Settings: CHO cells stably expressing the human apelin receptor, Forskolin 10 μM, 30 minutes, 100% efficacy = [Pyr1]-apelin-13 0.300 μM, concentration giving 50% efficacy.
T1 construct: host or cells: CHO cells
T1 sequence (P35414 1-380): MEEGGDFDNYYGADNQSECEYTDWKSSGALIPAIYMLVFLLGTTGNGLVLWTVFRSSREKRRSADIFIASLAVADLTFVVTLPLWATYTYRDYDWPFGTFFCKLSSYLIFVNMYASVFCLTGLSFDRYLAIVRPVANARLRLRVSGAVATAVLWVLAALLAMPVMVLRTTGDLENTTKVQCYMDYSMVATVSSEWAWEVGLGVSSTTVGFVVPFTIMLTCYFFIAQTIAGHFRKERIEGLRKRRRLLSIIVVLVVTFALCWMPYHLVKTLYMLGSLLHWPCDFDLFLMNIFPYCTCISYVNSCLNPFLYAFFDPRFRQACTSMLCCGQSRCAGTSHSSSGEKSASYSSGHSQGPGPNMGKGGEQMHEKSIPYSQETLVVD
Experimental: Measurement of Apelin Receptor Agonist Activity
The apelin receptor agonist activity of the compound represented by formula (I) or (II) of the present invention was measured by cell-based assay for determining the amount of intracellular cAMP.
CHO cells (DiscoveRx Corp.) stably expressing the human apelin receptor were inoculated to wells of a microtiter plate and cultured overnight at 37° C. under conditions of 5% CO2.
Each test compound and Forskolin were added to the wells at the same time. Specifically, the test compound dissolved in DMSO was diluted with a Forskolin-containing buffer [DMEM/F-12, HEPES, no phenol red (#11039, GIBCO)] to prepare a mixed solution containing the test compound at a final concentration of […] (common ratio: 3, serial dilution: 11), Forskolin at a final concentration of 10 μM, and DMSO at a final concentration of 0.3% v/v, which was then added to the wells (N═4).
After 30 minutes, the cells were lysed, and HitHunter cAMP XS+ Assay #90-0075L (DiscoveRx Corp.) was added to the cell lysate. The mixture was left overnight, and the resulting chemiluminescence signals were then detected using Analyst GT (Molecular Devices LLC.) to determine the amount of cAMP.
The amount of cAMP determined by the addition of a positive control [Pyr1]-apelin-13 (final concentration: 0.300 μM) and Forskolin (final concentration: 10 μM) at the same time was used as an index to define 100% efficacy. The amount of cAMP determined by the addition of Forskolin (final concentration: 10 μM) alone was used as an index to define 0% efficacy.
A dose response curve was prepared from the final concentration of the test compound and the determined amount of cAMP using Sigmaplot 12.0.

| EC50 [nM] | Compound |
| --- | --- |
| 96 | COc1cccc(OC)c1-n1c(-c2cccc(C(=O)O)c2)nnc1-c1ccc(C)o1 [Example 46, 3-[4-(2,6-Dimethoxyphenyl)-5-(5-methylfuran-2-yl)-4H-1,2,4-triazol-3-yl]benzoic acid] |
| 419 | COC(=O)c1ccc(-c2nnc(-c3ccc(C)o3)n2-c2c(OC)cccc2OC)cc1 [Example 47, Methyl 4-[4-(2,6-dimethoxyphenyl)-5-(5-methylfuran-2-yl)-4H-1,2,4-triazol-3-yl]benzoate] |
| 22 | COc1cccc(OC)c1-n1c(-c2ccc(C(=O)O)cc2)nnc1-c1ccc(C)o1 [Example 48, 4-[4-(2,6-Dimethoxyphenyl)-5-(5-methylfuran-2-yl)-4H-1,2,4-triazol-3-yl]benzoic acid] |
| 393 | COc1cccc(OC)c1-n1c(SCCCCC(=O)O)nnc1-c1ccc(C)o1 [Example 49, 5-{[4-(2,6-Dimethoxyphenyl)-5-(5-methylfuran-2-yl)-4H-1,2,4-triazol-3-yl]sulfanyl}pentanoic acid] |
| 1320 | COc1cccc(OC)c1-n1c(SCCCCCC(=O)O)nnc1-c1ccc(C)o1 [Example 50, 6-{[4-(2,6-Dimethoxyphenyl)-5-(5-methylfuran-2-yl)-4H-1,2,4-triazol-3-yl]sulfanyl}hexanoic acid] |
| 111 | CCOC(=O)C(=O)/C=C/c1nnc(-c2ccc(C)o2)n1-c1c(OC)cccc1OC [Example 51, Ethyl (3E)-4-[4-(2,6-dimethoxyphenyl)-5-(5-methylfuran-2-yl)-4H-1,2,4-triazol-3-yl]-2-oxobut-3-enoate] |
| 217 | COc1cccc(OC)c1-n1c(/C=C/c2cc(=O)n3cc(C)ccc3n2)nnc1-c1ccc(C)o1 [Example 52, 2-{(E)-2-[4-(2,6-Dimethoxyphenyl)-5-(5-methylfuran-2-yl)-4H-1,2,4-triazol-3-yl]ethenyl}-7-methyl-4H-pyrido[1,2-a]pyrimidin-4-one] |
| 2650 | COc1cccc(OC)c1-n1c(/C=C/C#N)nnc1-c1ccc(C)o1 [Example 53, (2E)-3-[4-(2,6-Dimethoxyphenyl)-5-(5-methylfuran-2-yl)-4H-1,2,4-triazol-3-yl]prop-2-enenitrile] |
| 1200 | COc1cccc(OC)c1-n1c(/C=C/C(=O)N(C)OC)nnc1-c1ccc(C)o1 [Example 54, (2E)-3-[4-(2,6-Dimethoxyphenyl)-5-(5-methylfuran-2-yl)-4H-1,2,4-triazol-3-yl]-N-methoxy-N-methylprop-2-enamide] |
| 1920 | COC(=O)/C=C\c1nnc(-c2ccc(C)o2)n1-c1c(OC)cccc1OC [Example 55, Methyl (2Z)-3-[4-(2,6-dimethoxyphenyl)-5-(5-methylfuran-2-yl)-4H-1,2,4-triazol-3-yl]prop-2-enoate] |
| 48 | COc1cccc(OC)c1-n1c(/C=C\C(=O)O)nnc1-c1ccc(C)o1 [Example 56, (2Z)-3-[4-(2,6-Dimethoxyphenyl)-5-(5-methylfuran-2-yl)-4H-1,2,4-triazol-3-yl]prop-2-enoic acid] |
| 1210 | COc1cccc(OC)c1-n1c(-c2ccccc2)nnc1-c1ccc(C)o1 [Example 57, 4-(2,6-Dimethoxyphenyl)-3-(5-methylfuran-2-yl)-5-phenyl-4H-1,2,4-triazole] |
| 2800 | COC(=O)c1ccccc1-c1nnc(-c2ccc(C)o2)n1-c1c(OC)cccc1OC [Example 58, Methyl 2-[4-(2,6-dimethoxyphenyl)-5-(5-methyl-2-furyl)-4H-1,2,4-triazol-3-yl]benzoate] |
| 349 | COc1cccc(OC)c1-n1c(-c2ccc(C)o2)nnc1-c1ccccc1C(=O)O [Example 59, 2-[4-(2,6-Dimethoxyphenyl)-5-(5-methylfuran-2-yl)-4H-1,2,4-triazol-3-yl]benzoic acid] |
| 1300 | COc1cccc(OC)c1-n1c(SCC(=O)O)cnc1-c1ccc(C)o1 [Example 60, {[1-(2,6-Dimethoxyphenyl)-2-(5-methylfuran-2-yl)-1H-imidazol-5-yl]sulfanyl}acetic acid] |

The next lines start with the compound.

| Compound | EC50 [nM] |
| --- | --- |
| COc1cccc(OC)c1-n1c(SCC(=O)O)nnc1C1CCCC1 [Example 33, {[5-Cyclopentyl-4-(2,6-dimethoxyphenyl)-4H-1,2,4-triazol-3-yl]sulfanyl}acetic acid] | 2440 |
| COc1ccnc(OC)c1-n1c(SCC(=O)O)nnc1-c1ccc(C)o1 [Example 34, {[4-(2,4-Dimethoxypyridin-3-yl)-5-(5-methylfuran-2-yl)-4H-1,2,4-triazol-3-yl]sulfanyl}acetic acid] | 152 |
| COc1cccc(OC)c1-n1c(SC(C(=O)O)c2ccccc2)nnc1-c1ccc(C)o1 (stereo not shown) [Example 35, {[4-(2,6-Dimethoxyphenyl)-5-(5-methylfuran-2-yl)-4H-1,2,4-triazol-3-yl]sulfanyl}(phenyl)acetic acid] | 10 |
| COc1cccc(OC)c1-n1c(SC(C)(C)C(=O)O)nnc1-c1ccc(C)o1 [Example 36, 2-{[4-(2,6-Dimethoxyphenyl)-5-(5-methylfuran-2-yl)-4H-1,2,4-triazol-3-yl]sulfanyl}-2-methylpropanoic acid] | 108 |
| COC(=O)C(Sc1nnc(-c2ccc(C)o2)n1-c1c(OC)cccc1OC)c1cccc2ccccc12 (stereo not shown) [Example 37, Methyl {[4-(2,6-dimethoxyphenyl)-5-(5-methylfuran-2-yl)-4H-1,2,4-triazol-3-yl]sulfanyl}(naphthalen-1-yl)acetate] | 825 |
| COc1cccc(OC)c1-n1c(SC(C(=O)O)c2cccc3ccccc23)nnc1-c1ccc(C)o1 (stereo not shown) [Example 38, {[4-(2,6-Dimethoxyphenyl)-5-(5-methylfuran-2-yl)-4H-1,2,4-triazol-3-yl]sulfanyl}(naphthalen-1-yl)acetic acid] | 9 |
| COc1cccc(OC)c1-n1c(SC(Cc2ccccc2)C(=O)O)nnc1-c1ccc(C)o1 (stereo not shown) [Example 39, 2-{[4-(2,6-Dimethoxyphenyl)-5-(5-methylfuran-2-yl)-4H-1,2,4-triazol-3-yl]sulfanyl}-3-phenylpropanoic acid] | 11 |
| COc1cccc(OC)c1-n1c(SCc2ccccc2)nnc1-c1ccc(C)o1 [Example 40, 3-(Benzylsulfanyl)-4-(2,6-dimethoxyphenyl)-5-(5-methylfuran-2-yl)-4H-1,2,4-triazole] | 1110 |
| COc1cccc(OC)c1-n1c(SC(C)C(=O)O)nnc1-c1ccc(C)o1 (stereo not shown) [Example 41, 2-{[4-(2,6-Dimethoxyphenyl)-5-(5-methylfuran-2-yl)-4H-1,2,4-triazol-3-yl]sulfanyl}propanoic acid] | 45 |
| CCCC(Sc1nnc(-c2ccc(C)o2)n1-c1c(OC)cccc1OC)C(=O)O (stereo not shown) [Example 42, 2-{[4-(2,6-Dimethoxyphenyl)-5-(5-methylfuran-2-yl)-4H-1,2,4-triazol-3-yl]sulfanyl}pentanoic acid] | 12 |
| COc1cccc(OC)c1-n1c(SC(C(=O)O)C(C)C)nnc1-c1ccc(C)o1 (stereo not shown) [Example 43, 2-{[4-(2,6-Dimethoxyphenyl)-5-(5-methylfuran-2-yl)-4H-1,2,4-triazol-3-yl]sulfanyl}-3-methylbutanoic acid] | 39 |
| COc1cccc(OC)c1-n1c(Br)nnc1-c1ccc(C)o1 [Example 44, 3-Bromo-4-(2,6-dimethoxyphenyl)-5-(5-methylfuran-2-yl)-4H-1,2,4-triazole] | 1210 |
| COC(=O)c1cccc(-c2nnc(-c3ccc(C)o3)n2-c2c(OC)cccc2OC)c1 [Example 45, Methyl 3-[4-(2,6-dimethoxyphenyl)-5-(5-methylfuran-2-yl)-4H-1,2,4-triazol-3-yl]benzoate] | 1320 |
